Data as given in PMC12731165, “Dual Modulation of Cardiac Ion Pumps: A Small-Molecule SERCA2a SUMOylation Enhancer Also Inhibits the Na^+/K^+-ATPase” (Biomedicines, 2025).

Columns and labels:
[1] = molecular target: T1, Na^+/K^+-ATPase (NKA), α1 isoform (Sus scrofa, UniProt P05024); assay: ouabain-sensitive ATP hydrolysis ([…] ouabain), NADH-coupled assay; format: biochemical
T1 construct: gene ATP1A1; native enzyme purified from porcine kidney outer medulla (α/β heterodimer); with NKA β-subunit (α/β heterodimer)

[2] = molecular target: T1, Na^+/K^+-ATPase (NKA), α1 isoform; assay: ouabain-sensitive ATPase activity, NADH-coupled assay at […] nm, […] °C; format: biochemical

IC50 [2] [µM] | SMILES | ouabain-sensitive ATP hydrolysis (500 μM ouabain), NADH-coupled assay [1]
 | C[C@@H]1O[C@@H](O[C@H]2C[C@@H](O)[C@]3(CO)[C@H]4[C@H](O)C[C@]5(C)[C@@H](C6=CC(=O)OC6)CC[C@]5(O)[C@@H]4CC[C@]3(O)C2)[C@H](O)[C@H](O)[C@H]1O [ouabain] | The enzymatic activity was verified through ouabain (OUA)-sensitive ATP hydrolysis assays prior to use in experiments.
7 ± 1 | COc1ccc(-c2nnc(Nc3nc4c(OC)cccc4s3)o2)cc1 [N106, N-(4-methoxy-1,3-benzothiazol-2-yl)-5-(4-methoxyphenyl)-1,3,4-oxadiazol-2-amine] | 
